Data from patent US20060270670A1, “Methods of synthesizing 6-alkylaminoquinoline derivatives” (priority 2005, published 2006).
Like-named read-outs stand apart in the source and are kept apart here. Values belong to the molecule of their own block, whether it stands above or below them.

Key:
[1] = system: SW620 colon carcinoma cells; assay: Cell proliferation assay (SRB), SW620; format: cell-based; conditions: Homo sapiens, SW-620, 48 h, read-out: IC50 cell proliferation SW620
[2] = system: 3T3; assay: Cell proliferation assay (SRB), 3T3; format: cell-based; conditions: Mus musculus, NIH3T3, 48 h, read-out: IC50 cell proliferation 3T3
[3] = system: BT474; assay: Cell proliferation assay (SRB), BT474; format: cell-based; conditions: Homo sapiens, BT-474, 144 h, read-out: IC50 cell proliferation BT474
[4] = system: SK-Br-3; assay: Cell proliferation assay (SRB), SK-Br-3; format: cell-based; conditions: Homo sapiens, read-out: IC50 cell proliferation SK-Br-3
[5] = system: 3T3/neu xenografts; assay: Effect on tumor xenografts, 3T3/neu; format: in vivo, Mice
[6] = system: BT474 xenografts; assay: Effect on tumor xenografts, BT474; format: in vivo, Mice; conditions: for maximum tumor inhibition: day 21; for effect on BT474 xenografts: 10-40 mg/kg/day
Description: In animals bearing BT474 xenografts, treatment of animals with (E)N-{4-[3-chloro-4-(2-pyridinylmethoxy)anilino]-3-cyano-7-ethoxy-6-quinolinyl}-4-(methylamino)-2-butenamide had no effect at 10-40 mg/kg/day, as shown in Table 4.

[7] = system: 3T3/neu; assay: Cell proliferation assay (SRB), 3T3/neu; format: cell-based, mouse; conditions: for IC50: Mus musculus, 48 h, read-out: IC50 cell proliferation 3T3/neu
[8] = target: T1, EGFR (Homo sapiens, UniProt P00533); assay: ErbB substrate phosphorylation assay (33PanQinase assay), EGFR; format: biochemical; conditions: peptide substrate phosphorylation, [γ33P]-ATP
T1 construct: purchased ProQinase, Freiburg, Germany
T1 sequence (P00533 25-1210): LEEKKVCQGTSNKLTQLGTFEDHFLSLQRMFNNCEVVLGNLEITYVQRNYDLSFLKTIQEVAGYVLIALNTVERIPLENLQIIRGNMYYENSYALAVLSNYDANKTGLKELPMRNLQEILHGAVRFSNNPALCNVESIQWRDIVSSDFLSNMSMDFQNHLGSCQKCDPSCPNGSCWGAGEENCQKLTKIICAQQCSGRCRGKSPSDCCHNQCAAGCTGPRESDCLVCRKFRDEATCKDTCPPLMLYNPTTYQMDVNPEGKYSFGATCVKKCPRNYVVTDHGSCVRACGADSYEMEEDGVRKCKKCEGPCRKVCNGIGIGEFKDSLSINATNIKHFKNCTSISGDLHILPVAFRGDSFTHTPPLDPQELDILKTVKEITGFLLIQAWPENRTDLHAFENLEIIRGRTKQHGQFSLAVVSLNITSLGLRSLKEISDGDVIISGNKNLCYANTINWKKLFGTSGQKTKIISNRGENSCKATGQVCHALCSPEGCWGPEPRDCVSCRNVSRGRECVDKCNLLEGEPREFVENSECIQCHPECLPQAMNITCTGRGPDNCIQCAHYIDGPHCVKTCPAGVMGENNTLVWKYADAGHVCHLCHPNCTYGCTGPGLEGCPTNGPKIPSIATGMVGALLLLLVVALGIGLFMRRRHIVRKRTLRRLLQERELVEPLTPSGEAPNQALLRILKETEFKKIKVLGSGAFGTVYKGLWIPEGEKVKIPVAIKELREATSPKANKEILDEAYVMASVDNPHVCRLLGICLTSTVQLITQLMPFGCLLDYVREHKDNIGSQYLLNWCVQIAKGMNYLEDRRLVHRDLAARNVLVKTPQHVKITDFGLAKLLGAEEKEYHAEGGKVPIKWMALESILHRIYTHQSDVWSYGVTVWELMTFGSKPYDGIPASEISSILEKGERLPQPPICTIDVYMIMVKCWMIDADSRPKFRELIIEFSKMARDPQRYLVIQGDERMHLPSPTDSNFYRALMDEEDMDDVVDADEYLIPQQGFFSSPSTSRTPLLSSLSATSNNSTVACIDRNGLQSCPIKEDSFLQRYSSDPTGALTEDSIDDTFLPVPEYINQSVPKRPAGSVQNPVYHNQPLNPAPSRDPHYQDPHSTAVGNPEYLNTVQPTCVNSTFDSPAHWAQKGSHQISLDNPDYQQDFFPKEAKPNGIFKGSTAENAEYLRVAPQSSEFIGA
Description: (§1) Here, the ability of the compound to inhibit phosphorylation of a substrate peptide [poly(Glu-Tyr) or poly(Ala-Glu-Lys-Tyr)] was determined.

[9] = target: T2, HER-2 (Homo sapiens, UniProt P04626); assay: ErbB substrate phosphorylation assay (33PanQinase assay), HER-2; format: biochemical; conditions: peptide substrate phosphorylation, [γ33P]-ATP
T2 construct: purchased ProQinase, Freiburg, Germany
T2 sequence (P04626 23-1255): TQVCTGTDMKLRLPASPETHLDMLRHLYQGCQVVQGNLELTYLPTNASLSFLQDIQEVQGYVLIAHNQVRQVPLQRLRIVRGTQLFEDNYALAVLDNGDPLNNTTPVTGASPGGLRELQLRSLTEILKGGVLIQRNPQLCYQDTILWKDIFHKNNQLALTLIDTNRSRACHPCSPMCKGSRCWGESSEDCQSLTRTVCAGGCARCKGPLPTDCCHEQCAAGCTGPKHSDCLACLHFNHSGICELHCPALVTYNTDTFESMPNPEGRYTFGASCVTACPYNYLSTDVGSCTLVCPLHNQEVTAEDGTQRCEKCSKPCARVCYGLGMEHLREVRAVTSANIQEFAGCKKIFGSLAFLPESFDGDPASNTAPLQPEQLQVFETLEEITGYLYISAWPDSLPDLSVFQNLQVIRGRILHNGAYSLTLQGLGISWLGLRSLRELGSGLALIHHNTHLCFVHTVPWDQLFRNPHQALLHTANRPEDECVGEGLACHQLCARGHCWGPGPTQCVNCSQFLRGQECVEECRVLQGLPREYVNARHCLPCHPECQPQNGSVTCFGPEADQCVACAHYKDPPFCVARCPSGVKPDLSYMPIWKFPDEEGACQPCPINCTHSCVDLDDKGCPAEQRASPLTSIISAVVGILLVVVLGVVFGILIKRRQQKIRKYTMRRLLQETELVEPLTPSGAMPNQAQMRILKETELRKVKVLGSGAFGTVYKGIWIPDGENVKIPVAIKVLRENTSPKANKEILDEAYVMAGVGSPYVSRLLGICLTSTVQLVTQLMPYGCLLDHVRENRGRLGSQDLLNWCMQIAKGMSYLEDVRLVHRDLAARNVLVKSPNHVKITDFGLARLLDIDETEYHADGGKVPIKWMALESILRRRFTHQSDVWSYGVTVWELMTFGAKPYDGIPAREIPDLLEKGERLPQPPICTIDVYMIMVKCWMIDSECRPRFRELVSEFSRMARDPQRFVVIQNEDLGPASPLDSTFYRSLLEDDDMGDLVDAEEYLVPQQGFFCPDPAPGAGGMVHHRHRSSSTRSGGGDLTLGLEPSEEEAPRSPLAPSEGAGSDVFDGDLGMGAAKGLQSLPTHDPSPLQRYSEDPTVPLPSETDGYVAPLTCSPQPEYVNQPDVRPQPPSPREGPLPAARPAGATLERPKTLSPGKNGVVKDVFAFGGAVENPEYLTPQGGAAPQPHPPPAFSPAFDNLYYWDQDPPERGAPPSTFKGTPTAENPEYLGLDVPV
Description: as §1

[10] = target: T3, HER-4 (Homo sapiens, UniProt Q15303); assay: ErbB substrate phosphorylation assay (33PanQinase assay), HER-4; format: biochemical; conditions: peptide substrate phosphorylation, [γ33P]-ATP
T3 construct: purchased ProQinase, Freiburg, Germany
T3 sequence (Q15303 26-1308): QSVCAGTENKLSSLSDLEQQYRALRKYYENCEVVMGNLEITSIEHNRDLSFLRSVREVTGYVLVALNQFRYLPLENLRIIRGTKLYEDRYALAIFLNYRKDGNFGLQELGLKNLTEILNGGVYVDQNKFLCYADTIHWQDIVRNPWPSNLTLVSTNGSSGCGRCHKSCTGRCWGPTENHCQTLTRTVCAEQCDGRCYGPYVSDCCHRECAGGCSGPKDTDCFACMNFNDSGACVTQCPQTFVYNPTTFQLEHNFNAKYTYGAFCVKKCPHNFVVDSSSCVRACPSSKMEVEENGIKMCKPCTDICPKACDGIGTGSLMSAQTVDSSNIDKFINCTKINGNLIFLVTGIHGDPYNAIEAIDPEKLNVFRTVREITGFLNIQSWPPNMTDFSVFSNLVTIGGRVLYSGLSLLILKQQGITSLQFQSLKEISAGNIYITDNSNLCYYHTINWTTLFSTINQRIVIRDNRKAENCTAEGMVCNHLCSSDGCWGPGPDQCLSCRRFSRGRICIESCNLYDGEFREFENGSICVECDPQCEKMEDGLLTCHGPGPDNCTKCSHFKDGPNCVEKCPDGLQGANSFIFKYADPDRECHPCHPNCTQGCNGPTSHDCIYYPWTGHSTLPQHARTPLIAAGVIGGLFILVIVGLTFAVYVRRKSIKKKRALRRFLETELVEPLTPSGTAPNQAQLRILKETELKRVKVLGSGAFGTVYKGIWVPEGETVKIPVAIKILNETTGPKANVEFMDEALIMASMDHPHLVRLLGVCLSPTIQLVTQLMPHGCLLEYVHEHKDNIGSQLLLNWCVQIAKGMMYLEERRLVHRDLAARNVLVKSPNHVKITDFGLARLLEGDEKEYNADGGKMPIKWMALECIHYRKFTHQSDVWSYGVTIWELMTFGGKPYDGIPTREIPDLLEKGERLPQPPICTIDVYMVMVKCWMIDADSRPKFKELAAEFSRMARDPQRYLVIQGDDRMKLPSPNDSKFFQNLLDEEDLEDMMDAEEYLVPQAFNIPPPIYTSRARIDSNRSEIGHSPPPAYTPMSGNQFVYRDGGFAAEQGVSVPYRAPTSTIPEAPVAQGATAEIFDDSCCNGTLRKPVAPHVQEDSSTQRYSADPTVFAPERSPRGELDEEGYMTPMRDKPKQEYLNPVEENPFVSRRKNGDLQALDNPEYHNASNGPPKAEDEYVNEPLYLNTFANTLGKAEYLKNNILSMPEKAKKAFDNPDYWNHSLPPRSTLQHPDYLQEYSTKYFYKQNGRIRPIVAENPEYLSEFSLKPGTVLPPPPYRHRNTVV
Description: as §1

[11] = system: A431; assay: Cell proliferation assay (SRB), A431; format: cell-based; conditions: Homo sapiens, A-431, 48 h, A431, 2 days, mean and SE (n)
[12] = target: T4, cytoplasmic kinase domain of HER-2 (Homo sapiens, UniProt P04626); assay: HER-2 autophosphorylation assay; format: biochemical; conditions: purified recombinant C-terminal fragment of HER-2 with ATP; phosphotyrosine antibodies; mean and SE (n)
T4 construct: Purified recombinant C-terminal fragment of HER-2 was incubated with ATP
T4 sequence (P04626 676-1255 limits assumed): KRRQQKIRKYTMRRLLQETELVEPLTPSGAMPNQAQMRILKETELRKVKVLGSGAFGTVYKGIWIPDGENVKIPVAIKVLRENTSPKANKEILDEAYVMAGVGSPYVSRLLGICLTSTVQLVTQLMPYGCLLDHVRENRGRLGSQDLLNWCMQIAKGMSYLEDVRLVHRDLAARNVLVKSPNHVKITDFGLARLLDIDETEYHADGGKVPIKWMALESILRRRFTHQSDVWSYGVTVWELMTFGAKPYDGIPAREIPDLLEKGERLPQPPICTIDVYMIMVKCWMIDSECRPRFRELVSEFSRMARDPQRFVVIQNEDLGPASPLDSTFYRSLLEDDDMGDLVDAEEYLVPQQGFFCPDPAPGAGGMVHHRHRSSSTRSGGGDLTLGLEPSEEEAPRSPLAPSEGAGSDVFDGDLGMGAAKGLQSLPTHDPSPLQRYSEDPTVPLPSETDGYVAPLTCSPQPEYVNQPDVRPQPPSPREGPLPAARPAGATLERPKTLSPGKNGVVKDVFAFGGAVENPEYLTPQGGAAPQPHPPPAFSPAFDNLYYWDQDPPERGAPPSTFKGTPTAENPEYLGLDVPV

Structure (SMILES): CCOc1cc2ncc(C#N)c(Nc3ccc(OCc4ccccn4)c(Cl)c3)c2cc1NC(=O)/C=C/CN(C)C [Dimethylamino, (E)N-{4-[3-Chloro-4-(2-pyridinylmethoxy)anilino]-3-cyano-7-ethoxy-6-quinolinyl}-4-(dimethylamino)-2-butenamide, reference compound]
IC50 [1]: 1220 ± 246 nM | IC50 [2]: 2190 ± 700 nM | IC50 [3]: 2 ± 0.2 nM | IC50 ([4]; SK-BR-3, 48 h): 36 ± 20 nM | tumor growth inhibition ([5]; first test, 40 mg/kg/day, day 18 (data not shown)): 74% | tumor growth inhibition ([5]; second independent test, between 40 and 80 mg/kg/day, day 14): 93-100% | maximum tumor inhibition ([6]; 10 mg/kg/day): 64% | maximum tumor inhibition ([6]; 40 mg/kg/day): 97% | effect on BT474 xenografts [6]: good antitumor activity | IC50 [7]: 5 ± 0.2 nM

melting point: 106.5 to 108 °C
Structure (SMILES): CCOc1cc2ncc(C#N)c(Nc3ccc(F)c(Cl)c3)c2cc1NC(=O)/C=C/CNCC(=O)OC(C)(C)C [Example 2, (E)N-{4-[3-chloro-4-fluoroanilino]-3-cyano-7-ethoxy-6-quinolinyl}-4-[N-(t-butyloxycarbonyl)methylamino]-2-butenamide]

IC50 ([1]; SW620, 2 days, SRB, mean and SE (n)): 1600 nM | IC50 ([3]; BT474, 6 days, SRB, mean and SE (n)): 3 nM | IC50 ([4]; 48 h, SK-Br-3, 2 days, SRB, mean and SE (n)): 34 nM | IC50 [8]: 7 nM | IC50 [9]: 21 nM | IC50 [10]: 13 nM | IC50 [11]: 67 nM | IC50 [12]: 3.4 nM
Structure (SMILES): CCOc1cc2ncc(C#N)c(Nc3ccc(OCc4ccccn4)c(Cl)c3)c2cc1NC(=O)/C=C/CNC [Example 6, (E)N-{4-[3-Chloro-4-(2-pyridinylmethoxy)anilino]-3-cyano-7-ethoxy-6-quinolinyl}-4-(methylamino)-2-butenamide]
IC50 ([2]; 3T3 untransfected cells, 2 days, SRB, mean and SE (n)): 5460 nM | effect on tumor growth ([5]; first test, daily oral, between 5 and 40 mg/kg/day): no effect on tumor growth | effect on tumor growth ([5]; second independent test, 100 mg/kg/day): no effect on tumor growth | effect on BT474 xenografts [6]: no effect | fold less potent than the dimethylamino compound ([7]; 3T3/neu cells): 8 fold | IC50 ([7]; 3T3/neu, 2 days, SRB, mean and SE (n)): 40 nM
